The target of data set [1] is T1, ENT1 (Homo sapiens, UniProt Q99808).
T1 sequence (Q99808 1-456): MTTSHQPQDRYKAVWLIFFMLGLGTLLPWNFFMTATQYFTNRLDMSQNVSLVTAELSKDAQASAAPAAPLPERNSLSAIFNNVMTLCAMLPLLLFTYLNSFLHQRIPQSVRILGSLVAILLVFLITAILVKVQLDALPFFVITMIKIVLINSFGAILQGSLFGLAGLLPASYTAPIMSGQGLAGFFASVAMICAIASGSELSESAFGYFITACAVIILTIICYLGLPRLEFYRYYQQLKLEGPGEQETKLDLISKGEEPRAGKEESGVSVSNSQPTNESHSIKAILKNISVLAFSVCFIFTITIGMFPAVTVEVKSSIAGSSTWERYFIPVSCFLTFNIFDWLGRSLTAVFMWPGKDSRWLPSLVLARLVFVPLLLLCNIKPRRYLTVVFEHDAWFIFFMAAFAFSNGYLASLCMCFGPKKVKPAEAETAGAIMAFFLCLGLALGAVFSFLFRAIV
The experiment in a line: Inhibition of ENT1-mediated [3H]-uridine uptake in HAP1 ENT2-KO cells. It counts as cell-based. The conditions noted are these: 10 µM TKI.

Data set [2] has as its system OCT1. Conditions: cited from earlier work.
For data set [3], the system named is OCT2. The conditions noted are these: read-out: IC50 OCT2; cited from earlier work.
In data set [4] the test system is organic anion transporter (OAT) 3 (SLC22A8). The conditions noted are these: read-out: IC50 OAT3; cited from earlier work.
The subject of data set [5] is MATE1. The conditions noted are these: read-out: IC50 MATE1; cited from earlier work.
Data set [6] relates to MATE2-K. Conditions: read-out: IC50 MATE2-K; cited from earlier work.

Molecules are shown by their SMILES.

`N#CC[C@H](C1CCCC1)n1cc(-c2ncnc3[nH]ccc23)cn1` [Ruxolitinib, ruxolitinib]: the “% inhibition of ENT1 activity (mean ± SD)” value in data set [1] (HAP1-ENT2 KO cells, [3H]-uridine uptake 5 min at 37 °C) was 34.1 ± 13.2 %. Further, the ENT1 inhibitor class result in data set [1] (HAP1 ENT2-KO cells) was “weak (decreased ENT1 activity by less than 35% and can thus be considered as weak ENT1 inhibitors)”. In data set [2], the “Effect on OCT1 activity (in words)” value is “fails to alter that of OCT1”. Besides, the IC50 in data set [3], in data set [4], in data set [5] and in data set [6] was less than 10 µM each time.

As usually defined, the IC50 is the midpoint of a concentration-inhibition curve.
